Assay results from PubChem BioAssay (NCI).
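Following 48 hours of exposure in 96-well plates, responses at five concentrations were used to interpolate endpoints linearly. At the GI50, growth is halved. TGI denotes the concentration required for complete inhibition of growth.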

Experiments:
Test in all cases: NCI tumour cell line growth inhibition, 48 h
786-0 renal = tested on: 786-0 renal
A498 renal = tested on: A498 renal
A549 NSCLC = tested on: A549 NSCLC
ACHN renal = tested on: ACHN renal
BT-549 breast = tested on: BT-549 breast
CAKI-1 renal = tested on: CAKI-1 renal
CCRF-CEM leukemia = tested on: CCRF-CEM leukemia
COLO 205 colon = tested on: COLO 205 colon
DU-145 prostate = tested on: DU-145 prostate
EKVX NSCLC = tested on: EKVX NSCLC
HCC-2998 colon = tested on: HCC-2998 colon
HCT-116 colon = tested on: HCT-116 colon
HCT-15 colon = tested on: HCT-15 colon
HL-60(TB) leukemia = tested on: HL-60(TB) leukemia
HOP-62 NSCLC = tested on: HOP-62 NSCLC
HOP-92 NSCLC = tested on: HOP-92 NSCLC
HS 578T breast = tested on: HS 578T breast
HT29 colon = tested on: HT29 colon
IGROV1 ovarian = tested on: IGROV1 ovarian
K-562 leukemia = tested on: K-562 leukemia
KM12 colon = tested on: KM12 colon
LOX IMVI melanoma = tested on: LOX IMVI melanoma
M14 melanoma = tested on: M14 melanoma
MALME-3M melanoma = tested on: MALME-3M melanoma
MCF7 breast = tested on: MCF7 breast
MDA-MB-231 breast = tested on: MDA-MB-231 breast
MDA-MB-435 = tested on: MDA-MB-435
MOLT-4 leukemia = tested on: MOLT-4 leukemia
NCI-H226 lung = tested on: NCI-H226 lung
NCI-H23 lung = tested on: NCI-H23 lung
NCI-H460 lung = tested on: NCI-H460 lung
NCI-H522 lung = tested on: NCI-H522 lung
NCI/ADR-RES ovarian = tested on: NCI/ADR-RES ovarian
OVCAR-3 ovarian = tested on: OVCAR-3 ovarian
OVCAR-5 ovarian = tested on: OVCAR-5 ovarian
OVCAR-8 ovarian = tested on: OVCAR-8 ovarian
PC-3 prostate = tested on: PC-3 prostate
RPMI-8226 leukemia = tested on: RPMI-8226 leukemia
RXF 393 renal = tested on: RXF 393 renal
SF-268 CNS = tested on: SF-268 CNS
SF-295 CNS = tested on: SF-295 CNS
SF-539 CNS = tested on: SF-539 CNS
SK-MEL-2 melanoma = tested on: SK-MEL-2 melanoma
SK-MEL-28 melanoma = tested on: SK-MEL-28 melanoma
SK-MEL-5 melanoma = tested on: SK-MEL-5 melanoma
SK-OV-3 ovarian = tested on: SK-OV-3 ovarian
SN12C renal = tested on: SN12C renal
SNB-19 CNS = tested on: SNB-19 CNS
SNB-75 CNS = tested on: SNB-75 CNS
SR leukemia = tested on: SR leukemia
SW-620 colon = tested on: SW-620 colon
T-47D breast = tested on: T-47D breast
TK-10 renal = tested on: TK-10 renal
U251 CNS = tested on: U251 CNS
UACC-257 melanoma = tested on: UACC-257 melanoma
UACC-62 melanoma = tested on: UACC-62 melanoma
UO-31 renal = tested on: UO-31 renal

SMILES: C[C@H](N)C(=O)N1C[C@H](CCCB(O)O)[C@](N)(C(=O)O)C1
- GI50 (786-0 renal): > 100 µM
- TGI (786-0 renal): > 100 µM
- GI50 (A498 renal): > 100 µM
- TGI (A498 renal): > 100 µM
- GI50 (A549 NSCLC): > 100 µM
- TGI (A549 NSCLC): > 100 µM
- GI50 (ACHN renal): > 100 µM
- TGI (ACHN renal): > 100 µM
- GI50 (BT-549 breast): > 100 µM
- TGI (BT-549 breast): > 100 µM
- GI50 (CAKI-1 renal): > 100 µM
- TGI (CAKI-1 renal): > 100 µM
- GI50 (CCRF-CEM leukemia): > 100 µM
- TGI (CCRF-CEM leukemia): > 100 µM
- GI50 (COLO 205 colon): > 100 µM
- TGI (COLO 205 colon): > 100 µM
- GI50 (DU-145 prostate): > 100 µM
- TGI (DU-145 prostate): > 100 µM
- GI50 (EKVX NSCLC): > 100 µM
- TGI (EKVX NSCLC): > 100 µM
- GI50 (HCC-2998 colon): > 100 µM
- TGI (HCC-2998 colon): > 100 µM
- GI50 (HCT-116 colon): > 100 µM
- TGI (HCT-116 colon): > 100 µM
- GI50 (HCT-15 colon): > 100 µM
- TGI (HCT-15 colon): > 100 µM
- GI50 (HL-60(TB) leukemia): > 100 µM
- TGI (HL-60(TB) leukemia): > 100 µM
- GI50 (HOP-62 NSCLC): > 100 µM
- TGI (HOP-62 NSCLC): > 100 µM
- GI50 (HOP-92 NSCLC): > 100 µM
- TGI (HOP-92 NSCLC): > 100 µM
- GI50 (HS 578T breast): > 100 µM
- TGI (HS 578T breast): > 100 µM
- GI50 (HT29 colon): > 100 µM
- TGI (HT29 colon): > 100 µM
- GI50 (IGROV1 ovarian): > 100 µM
- TGI (IGROV1 ovarian): > 100 µM
- GI50 (K-562 leukemia): > 100 µM
- TGI (K-562 leukemia): > 100 µM
- GI50 (KM12 colon): > 100 µM
- TGI (KM12 colon): > 100 µM
- GI50 (LOX IMVI melanoma): > 100 µM
- TGI (LOX IMVI melanoma): > 100 µM
- GI50 (M14 melanoma): > 100 µM
- TGI (M14 melanoma): > 100 µM
- GI50 (MALME-3M melanoma): > 100 µM
- TGI (MALME-3M melanoma): > 100 µM
- GI50 (MCF7 breast): > 100 µM
- TGI (MCF7 breast): > 100 µM
- GI50 (MDA-MB-231 breast): > 100 µM
- TGI (MDA-MB-231 breast): > 100 µM
- GI50 (MDA-MB-435): > 100 µM
- TGI (MDA-MB-435): > 100 µM
- GI50 (MOLT-4 leukemia): > 100 µM
- TGI (MOLT-4 leukemia): > 100 µM
- GI50 (NCI-H226 lung): > 100 µM
- TGI (NCI-H226 lung): > 100 µM
- GI50 (NCI-H23 lung): > 100 µM
- TGI (NCI-H23 lung): > 100 µM
- GI50 (NCI-H460 lung): > 100 µM
- TGI (NCI-H460 lung): > 100 µM
- GI50 (NCI-H522 lung): > 100 µM
- TGI (NCI-H522 lung): > 100 µM
- GI50 (NCI/ADR-RES ovarian): > 100 µM
- TGI (NCI/ADR-RES ovarian): > 100 µM
- GI50 (OVCAR-3 ovarian): > 100 µM
- TGI (OVCAR-3 ovarian): > 100 µM
- GI50 (OVCAR-5 ovarian): > 100 µM
- TGI (OVCAR-5 ovarian): > 100 µM
- GI50 (OVCAR-8 ovarian): > 100 µM
- TGI (OVCAR-8 ovarian): > 100 µM
- GI50 (PC-3 prostate): > 100 µM
- TGI (PC-3 prostate): > 100 µM
- GI50 (RPMI-8226 leukemia): > 100 µM
- TGI (RPMI-8226 leukemia): > 100 µM
- GI50 (RXF 393 renal): > 100 µM
- TGI (RXF 393 renal): > 100 µM
- GI50 (SF-268 CNS): > 100 µM
- TGI (SF-268 CNS): > 100 µM
- GI50 (SF-295 CNS): > 100 µM
- TGI (SF-295 CNS): > 100 µM
- GI50 (SF-539 CNS): > 100 µM
- TGI (SF-539 CNS): > 100 µM
- GI50 (SK-MEL-2 melanoma): > 100 µM
- TGI (SK-MEL-2 melanoma): > 100 µM
- GI50 (SK-MEL-28 melanoma): > 100 µM
- TGI (SK-MEL-28 melanoma): > 100 µM
- GI50 (SK-MEL-5 melanoma): > 100 µM
- TGI (SK-MEL-5 melanoma): > 100 µM
- GI50 (SK-OV-3 ovarian): > 100 µM
- TGI (SK-OV-3 ovarian): > 100 µM
- GI50 (SN12C renal): > 100 µM
- TGI (SN12C renal): > 100 µM
- GI50 (SNB-19 CNS): > 100 µM
- TGI (SNB-19 CNS): > 100 µM
- GI50 (SNB-75 CNS): > 100 µM
- TGI (SNB-75 CNS): > 100 µM
- GI50 (SR leukemia): > 100 µM
- TGI (SR leukemia): > 100 µM
- GI50 (SW-620 colon): > 100 µM
- TGI (SW-620 colon): > 100 µM
- GI50 (T-47D breast): > 100 µM
- TGI (T-47D breast): > 100 µM
- GI50 (TK-10 renal): > 100 µM
- TGI (TK-10 renal): > 100 µM
- GI50 (U251 CNS): > 100 µM
- TGI (U251 CNS): > 100 µM
- GI50 (UACC-257 melanoma): > 100 µM
- TGI (UACC-257 melanoma): > 100 µM
- GI50 (UACC-62 melanoma): > 100 µM
- TGI (UACC-62 melanoma): > 100 µM
- GI50 (UO-31 renal): > 100 µM
- TGI (UO-31 renal): > 100 µM
